Here are results for four compounds from US20210115104A1, “AMYLIN ANALOGUES” (Zealand Pharma A/S, priority 2015, published 2021).

*1 amine or outer side, *2 acyl side, *3 side chain or, on linkers, in order; H or OH if unused. Where a SMILES comes first, the peptide text is derived from it. Bridges are numbered along the chain shown (N, C = ends). [ ]: non-standard residue; d: D form. The star is where a group is joined. C20 diacid = O=C(O)CCCCCCCCCCCCCCCCCCC(=O)*; Pro(4R-NH2) = N[C@H]1CN[C@H](C(=O)O)C1; γGlu = O=C(O)[C@H](CCC(=O)[*:2])N[*:1]; Hyp = O=C(O)[C@@H]1C[C@@H](O)CN1; NMeI = CC[C@H](C)[C@H](NC)C(=O)O; Aad = N[C@@H](CCCC(=O)O)C(=O)O; Sar = CNCC(=O)O

Series [1] in a line: Assessment of physical stability (Thioflavin T fibrillation). The format is physicochemical. The arrangement: key: FND = fibrillation not detected; FD = fibrillation detected. Conditions: 1 mg/ml, 40° C., ThT; for Fibrillation pH 4.0 (Ac): 50 mM acetate buffer pH 4.0, 96 hours; for Fibrillation pH 7.0 (His): 50 mM histidine buffer pH 7.0, 96 hours; for Fibrillation pH 7.0 (Phos.): 50 mM phosphate buffer pH 7.0, 96 hours. The method, then: Solutions containing (i) 1 mg/ml of test peptide, 40 μM ThT and 50 mM phosphate (Ph) buffer (pH 7.0), (ii) 1 mg/ml of test peptide, 40 μM ThT and 50 mM histidine (His) buffer (pH 7.0), and (iii) 1 mg/ml of test peptide, 40 μM ThT and 50 mM acetate (Ac) buffer (pH 4.0), were loaded in a 96-well black fluorescence plate (clear bottom) in triplicate. Data were collected at fixed intervals of 10 min, each preceded by 300 s of automixing (agitation), over a period of 96 hours at 40° C. Physical stability, expressed as lag-time of fibril formation (in hours), was defined as the intersection between two linear regressions representing the initial stable phase and the growth phase.

Series [2] can be described thus: Assessment of chemical stability (RP-HPLC normalized purity). It is filed as physicochemical. Particulars: 7 days, 40° C., Table 1; for Normalized purity after 7 days, 40° C., pH 4: pH 4, 0.2 mg/ml; for Normalized purity after 7 days, 40° C., pH 7.5: pH 7.5, 0.2 mg/ml; for Normalized purity after 7 days, 40° C., pH 9: pH 9, 0.2 mg/ml; for Normalized purity after 7 days, 40° C., pH 6: pH 6, 0.2 mg/ml. As for the experimental part: Samples of each test peptide were dissolved in MilliQ™ water, and the pH of the solution was adjusted to pH 4, pH 6, pH 7.5 or pH 9, respectively, using either HCl or NaOH. The final peptide concentration was 0.2 mg/ml. Samples were placed in glass vials and incubated at 40° C. The samples were analyzed by RP-HPLC on a C8 column with gradient elution using an ammonium formate/water eluent system, or on a C18 column with gradient elution using a trifluoroacetic acid/water eluent system. The area-percentage (area-%) of the main peak after incubation time T=t (relative to time T=0) was determined by UV spectroscopy at 220 nm.
The purity was first determined as follows:
Purity(area-%)=(area of main peak/total area of all peaks)×100.
The purity was then normalized between time points by setting purity at time 0 (T=0) to 100 for each pH value for a given peptide, as follows:
Normalised area-% at time t (T=t)=[area-%(T=t)/area-%(T=0)]×100.
The normalized purity values in Table 1 were determined after 7 days of incubation.
The chemical stability assessment described in Example 6 was repeated for four pairs of compounds, each differing only by the presence or absence of an Asn-Asn (N—N) doublet at positions 21 and 22.

Consider `CC[C@H](C)[C@@H](C(=O)N[C@@H](CC(C)C)C(=O)N[C@@H](CO)C(=O)N[C@@H](CO)C(=O)N[C@H](C(=O)N[C@@H](CC(N)=O)C(=O)N[C@H](C(=O)NCC(=O)N[C@@H](CO)C(=O)N[C@@H](CC(N)=O)C(=O)N[C@H](C(=O)N1C[C@H](N)C[C@H]1C(N)=O)[C@@H](C)O)C(C)C)[C@@H](C)O)N(C)C(=O)[C@H](C)NC(=O)CN(C)C(=O)[C@H](Cc1ccccc1)NC(=O)[C@H](CC(N)=O)NC(=O)[C@H](CC(N)=O)NC(=O)[C@H](CO)NC(=O)[C@H](CO)NC(=O)[C@H](CCCNC(=N)N)NC(=O)[C@H](Cc1c[nH]cn1)NC(=O)[C@H](CC(C)C)NC(=O)[C@H](Cc1ccccc1)NC(=O)[C@H](Cc1c[nH]cn1)NC(=O)[C@H](C)NC(=O)[C@H](CC(C)C)NC(=O)[C@H](CCCNC(=N)N)NC(=O)[C@H](CCC(N)=O)NC(=O)[C@@H](NC(=O)[C@H](C)NC(=O)[C@@H]1CSSC[C@H](NC(=O)[C@H](CCCNC(=N)N)NC(=O)CC[C@H](NC(=O)CCCCCCCCCCCCCCCCCCC(=O)O)C(=O)O)C(=O)N[C@@H](CC(N)=O)C(=O)N[C@@H]([C@@H](C)O)C(=O)N[C@@H](C)C(=O)N[C@@H]([C@@H](C)O)C(=O)N1)[C@@H](C)O` [Compound 5, [19CD]-isoGlu-R-C( )-NTAT-C( )-ATQRLAHFLHRSSNNF-Gly(Me)-A-Ile(Me)-LSSINVGSNT-Apr-NH2] ({C20 diacid-γGlu}-RCNTATCATQRLAHFLHRSSNNF[Sar]A[NMeI]LSSTNVGSNT[Pro(4R-NH2)]-NH2; disulfide 2-7), for which, in series [1], the “Fibrillation pH 4.0 (Ac)” value is on record as “FND”, the “Fibrillation pH 7.0 (His)” value is reported as “FND” and the “Fibrillation pH 7.0 (Phos.)” value is “FND”. Besides, in series [2], the “Normalized purity after 7 days, 40° C., pH 4” value (from here on “Normalized purity … pH 4”) was “B (B = 70-90%)”; the “Normalized purity after 7 days, 40° C., pH 7.5” value (“Normalized purity … pH 7.5” below) is “C (C = <70%)”; the “Normalized purity after 7 days, 40° C., pH 9” value (“Normalized purity … pH 9” for short) is reported as “C (C = <70%)”.
Regarding `CC[C@H](C)[C@@H](C(=O)N[C@@H](CC(C)C)C(=O)N[C@@H](CO)C(=O)N[C@@H](CO)C(=O)N[C@H](C(=O)N[C@@H](CCC(=O)O)C(=O)N[C@H](C(=O)NCC(=O)N[C@@H](CO)C(=O)N[C@@H](CC(N)=O)C(=O)N[C@H](C(=O)N1C[C@H](O)C[C@H]1C(N)=O)[C@@H](C)O)C(C)C)[C@@H](C)O)N(C)C(=O)[C@H](C)NC(=O)CN(C)C(=O)[C@H](Cc1ccccc1)NC(=O)[C@H](CO)NC(=O)[C@H](CO)NC(=O)[C@H](CCCNC(=N)N)NC(=O)[C@H](CCC(=O)O)NC(=O)[C@H](CC(C)C)NC(=O)[C@H](Cc1ccccc1)NC(=O)[C@H](Cc1c[nH]cn1)NC(=O)[C@H](C)NC(=O)[C@H](CC(C)C)NC(=O)[C@H](CCCNC(=N)N)NC(=O)[C@H](CCC(=O)O)NC(=O)[C@@H](NC(=O)[C@H](C)NC(=O)[C@@H]1CSSC[C@H](NC(=O)[C@H](CCCNC(=N)N)NC(=O)CC[C@H](NC(=O)CCCCCCCCCCCCCCCCCCC(=O)O)C(=O)O)C(=O)NCC(=O)N[C@@H]([C@@H](C)O)C(=O)N[C@@H](C)C(=O)N[C@@H]([C@@H](C)O)C(=O)N1)[C@@H](C)O` [Compound 8, [19CD]-isoGlu-R-C( )-GTAT-C( )-ATERLAHFLERSSF-Gly(Me)-A-Ile(Me)-LSSTEVGSNT-Hyp-NH2] ({C20 diacid-γGlu}-RCGTATCATERLAHFLERSSF[Sar]A[NMeI]LSSTEVGSNT[Hyp]-NH2; disulfide 2-7), in series [1], the “Fibrillation pH 4.0 (Ac)” value is recorded as “FND”, the “Fibrillation pH 7.0 (His)” value was “FND” and the “Fibrillation pH 7.0 (Phos.)” value is “FND”. For the same compound, in series [2], the “Normalized purity … pH 4” value is “A (A = >90%)”; the “Normalized purity after 7 days, 40° C., pH 6” value (“Normalized purity … pH 6” below) was “B (B = 70-90%)”; the “Normalized purity … pH 7.5” value is “A (A = >90%)”; the “Normalized purity … pH 9” value was “A (A = >90%)”.
For `CC[C@H](C)[C@@H](C(=O)N[C@@H](CC(C)C)C(=O)N[C@@H](CO)C(=O)N[C@@H](CO)C(=O)N[C@H](C(=O)N[C@@H](CCC(=O)O)C(=O)N[C@H](C(=O)NCC(=O)N[C@@H](CO)C(=O)N[C@@H](CCCC(=O)O)C(=O)N[C@H](C(=O)N1C[C@H](O)C[C@H]1C(N)=O)[C@@H](C)O)C(C)C)[C@@H](C)O)N(C)C(=O)[C@H](C)NC(=O)CN(C)C(=O)[C@H](Cc1ccccc1)NC(=O)[C@H](CO)NC(=O)[C@H](CO)NC(=O)[C@H](CCCNC(=N)N)NC(=O)[C@@H](NC(=O)[C@H](CC(C)C)NC(=O)[C@H](Cc1ccccc1)NC(=O)[C@H](Cc1c[nH]cn1)NC(=O)[C@H](C)NC(=O)[C@H](CC(C)C)NC(=O)[C@H](CCCNC(=N)N)NC(=O)[C@H](CCC(=O)O)NC(=O)[C@@H](NC(=O)[C@H](C)NC(=O)[C@@H]1CSSC[C@H](NC(=O)[C@H](CCCNC(=N)N)NC(=O)CC[C@H](NC(=O)CCCCCCCCCCCCCCCCCCC(=O)O)C(=O)O)C(=O)NCC(=O)N[C@@H]([C@@H](C)O)C(=O)N[C@@H](C)C(=O)N[C@@H]([C@@H](C)O)C(=O)N1)[C@@H](C)O)[C@@H](C)O` [Compound 12, [19CD]-isoGlu-R-C( )-GTAT-C( )-ATERLAHFLTRSSF-Gly(Me)-A-Ile(Me)-LSSTEVGS-Aad-T-Hyp-NH2] ({C20 diacid-γGlu}-RCGTATCATERLAHFLTRSSF[Sar]A[NMeI]LSSTEVGS[Aad]T[Hyp]-NH2; disulfide 2-7), in series [1], the “Fibrillation pH 4.0 (Ac)” value is recorded as “FND”, the “Fibrillation pH 7.0 (His)” value is “FD” and the “Fibrillation pH 7.0 (Phos.)” value is given as “FD”. In series [2], the “Normalized purity … pH 4” value is listed as “A (A = >90%)”; the “Normalized purity … pH 6” value is listed as “A (A = >90%)”; the “Normalized purity … pH 7.5” value was “B (B = 70-90%)”; the “Normalized purity … pH 9” value is “B (B = 70-90%)”.
With `CC[C@H](C)[C@@H](C(=O)N[C@@H](CC(C)C)C(=O)N[C@@H](CO)C(=O)N[C@@H](CO)C(=O)N[C@H](C(=O)N[C@@H](CCC(=O)O)C(=O)N[C@H](C(=O)NCC(=O)N[C@@H](CO)C(=O)N[C@@H](CCC(=O)O)C(=O)N[C@H](C(=O)N1CCC[C@H]1C(N)=O)[C@@H](C)O)C(C)C)[C@@H](C)O)N(C)C(=O)[C@H](C)NC(=O)CN(C)C(=O)[C@H](Cc1ccccc1)NC(=O)[C@H](CCCNC(=N)N)NC(=O)[C@H](Cc1c[nH]cn1)NC(=O)[C@H](CC(C)C)NC(=O)[C@H](Cc1ccccc1)NC(=O)[C@H](Cc1c[nH]cn1)NC(=O)[C@H](C)NC(=O)[C@H](CC(C)C)NC(=O)[C@H](CCCNC(=N)N)NC(=O)[C@H](CCC(N)=O)NC(=O)[C@@H](NC(=O)[C@H](C)NC(=O)[C@@H]1CSSC[C@H](NC(=O)[C@H](CCCNC(=N)N)NC(=O)CC[C@H](NC(=O)CCCCCCCCCCCCCCCCCCC(=O)O)C(=O)O)C(=O)N[C@@H](CC(N)=O)C(=O)N[C@@H]([C@@H](C)O)C(=O)N[C@@H](C)C(=O)N[C@@H]([C@@H](C)O)C(=O)N1)[C@@H](C)O` [Compound 14, [19CD]-isoGlu-R-C( )-NTAT-C( )-ATQRLAHFLHRF-Gly(Me)-A-Ile(Me)-LSSTEVGSETP-NH2] ({C20 diacid-γGlu}-RCNTATCATQRLAHFLHRF[Sar]A[NMeI]LSSTEVGSETP-NH2; disulfide 2-7), in series [1], the “Fibrillation pH 4.0 (Ac)” value was “FND”, the “Fibrillation pH 7.0 (His)” value is “FD” and the “Fibrillation pH 7.0 (Phos.)” value is listed as “FND”. In addition, in series [2], the “Normalized purity … pH 4” value is on record as “A (A = >90%)”; the “Normalized purity … pH 6” value was “A (A = >90%)”; the “Normalized purity … pH 7.5” value is “A (A = >90%)”; the “Normalized purity … pH 9” value is “A (A = >90%)”.
